Results reported in ChEMBL document CHEMBL1129395, “Targeting the minor groove of DNA: crystal structures of two complexes between furan derivatives of berenil and the DNA dodecamer d(CGCGAATTCGCG)2” (1996).

Tests used:
Format in all cases: functional
Cryptosporidium parvum = experiment: percentage of controls is reported as the counted oocysts obtained from alimentary tract tissues using a blinded protocol on Cryptosporidium parvum at dose of 62 umol/kg/day
Pneumocystis carinii [1] = experiment: Percentage of control was reported as the counted cysts in lung tissue using blinded protocol of saline-treated controls on Pneumocystis carinii at dose of 22.1 umol/kg/day
Pneumocystis carinii [2] = experiment: in vivo activity against Pneumocystis carinii at dose of 22.1 umol/kg/day
[3] = In vitro increase in thermal melting of oligomer d(CGCGAATTCGCG)2

## N=C(N)c1ccc(OCCCCCOc2ccc(C(=N)N)cc2)cc1 [PENTAMIDINE]
Cryptosporidium parvum
  Of control: 20.8%
Pneumocystis carinii [1]
  Of control: 1.47%
Pneumocystis carinii [2]
  Toxicity: 2
[3]
  ΔTm: 4.8
